Measurements taken from patent EP0498830B1, “GLUTAMIC AND ASPARTIC ACID DERIVATIVES WITH ANTIGASTRIN ACTIVITY AND A METHOD FOR THEIR PREPARATION” (ROTTA RESEARCH LABORATORIUM S.P.A., priority 1989, dated 1991).
pIC50: −log10 of the molar value.

Columns and labels:
[1] = tested on: fundic mucosa; test: Pentagastrin-induced hyperplasia of the fundic mucosa in tumour-bearing mice; assay type: in vivo; conditions: pentagastrin alone, 250 mcg/ml twice a day, 20 days
Excerpt: (§1) Male mice weighing 20-25g were inoculated subcutaneously in the interscapular region with a suspension of 8 x 10⁴ tumour cells of a mouse colic adenocarcinoma. […] After 20 days, the animals were killed and the fundic mucosa and the tumours were removed, weighed and extracted in order to determine their DNA content.

[2] = molecular target: T1, gastrin receptor sites on the parietal cell membranes of the fundic mucosa of a guinea-pig stomach (Cavia porcellus, UniProt H0VZC5); test: Inhibition of binding of tritiated pentagastrin to isolated guinea-pig gastric glands; parameters: from tissue; host or cells: isolated guinea-pig gastric (fundic) glands; conditions: displacement of 50% of pentagastrin tritiate; 30 minutes at 25°C
T1 sequence (H0VZC5 1-426): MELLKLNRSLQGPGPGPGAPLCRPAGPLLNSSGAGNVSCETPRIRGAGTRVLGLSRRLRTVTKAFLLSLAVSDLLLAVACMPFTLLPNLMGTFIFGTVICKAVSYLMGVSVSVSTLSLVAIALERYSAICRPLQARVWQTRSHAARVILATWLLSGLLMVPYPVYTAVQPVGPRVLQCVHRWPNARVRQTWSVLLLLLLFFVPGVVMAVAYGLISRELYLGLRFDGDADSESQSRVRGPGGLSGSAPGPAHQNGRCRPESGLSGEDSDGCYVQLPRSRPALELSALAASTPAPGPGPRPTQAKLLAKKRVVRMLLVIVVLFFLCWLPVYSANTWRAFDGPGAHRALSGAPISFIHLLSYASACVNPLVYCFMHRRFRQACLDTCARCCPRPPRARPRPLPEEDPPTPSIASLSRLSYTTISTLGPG
Experimental: The capacity of some of the compounds which are the subject of the invention to inhibit the binding of pentagastrin-[beta-alanyl-3-3H(N)] to the gastrin receptor sites on the parietal cell membranes of the fundic mucosa of a guinea-pig stomach was evaluated by comparison with the displacement of pentagastrin induced by proglumide, which is a reference antigastrin compound, by lorglumide, which is a powerful CCK antagonist mentioned above, and by the compound D5 which is the optical antipode (the L-series enantiomer) of the compound D1.
Male guinea pigs weighing about 400-500g were used. After the guinea pig had been killed, its stomach was removed and placed in oxygenated SPB buffer at 37°C (SPB = saline phosphate buffer: 149.6 mM NaCl, 3 mM K₂HPO₄, 0.64 mM NaH₂PO₄, pH 7.3).
After washing in the buffer, the stomach was placed on a petri dish and the antral part discarded.
The mucosa of the remaining part was removed from the underlying muscular part and was then chopped and transferred to a flask containing a collagenase digestion solution, 0.1% BSA and 0.2% glucose. […]
After the supernatant liquid had been removed by centrifuging, the radioactivity associated with the pellet was determined with a liquid scintillator. The specific binding was determined as the difference between the binding in the absence and in the presence of 10⁻⁶ M pentagastrin. […]

[3] = tested on: mouse colic adenocarcinoma; test: Pentagastrin-induced growth of transplanted colic tumour in mice; assay type: in vivo; conditions: pentagastrin alone, 250 mcg/ml twice a day, 20 days
Excerpt: as §1

[4] = molecular target: T2, central gastrin receptors (Mus musculus, UniProt P56481); test: Inhibition of binding of tritiated pentagastrin to mouse cerebral cortex membranes; parameters: Cerebral cortex membranes were therefore used and pentagastrin tritiate was again used as the ligand; from tissue; host or cells: mouse cerebral cortex membranes; species or system mice; conditions: displacement of pentagastrin tritiate; 40 minutes at 37°C
T2 sequence (P56481 1-453): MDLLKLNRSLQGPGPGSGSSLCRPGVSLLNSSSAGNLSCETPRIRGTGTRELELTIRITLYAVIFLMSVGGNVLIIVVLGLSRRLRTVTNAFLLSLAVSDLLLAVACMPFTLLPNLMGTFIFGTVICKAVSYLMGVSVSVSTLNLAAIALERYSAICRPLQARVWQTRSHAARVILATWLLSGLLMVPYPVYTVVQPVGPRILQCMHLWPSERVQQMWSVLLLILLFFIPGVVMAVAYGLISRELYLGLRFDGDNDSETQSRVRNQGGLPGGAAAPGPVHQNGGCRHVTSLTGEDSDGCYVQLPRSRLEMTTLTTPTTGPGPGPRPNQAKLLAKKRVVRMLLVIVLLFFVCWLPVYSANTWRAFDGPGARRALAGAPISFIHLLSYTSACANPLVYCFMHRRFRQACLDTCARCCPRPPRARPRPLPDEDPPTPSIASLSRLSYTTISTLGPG
Experimental: Cerebral cortex membranes were therefore used and pentagastrin tritiate was again used as the ligand.
Mouse cortex tissue was homogenised cold in 20 volumes of tris buffer (pH 7.7). After washing and centrifuging, the final pellet was resuspended in 20 volumes of binding buffer containing, inter alia, TRIS, BSA and bacitracin. 0.4 ml of the membrane thus obtained were then incubated with a radioactive tracer and with the compounds under test for 40 minutes at 37°C.
After the supernatant liquid had been removed by centrifuging, the radioactivity associated with the pellet was determined, again with a liquid scintillator. The specific binding is the difference between the binding in the absence and in the presence of 10⁻⁶M pentagastrin.
Again, this gives the IC50s of the compounds tested with the meaning as given above.

## CSCC[C@H](NC(=O)[C@H](Cc1c[nH]c2ccccc12)NC(=O)CCNC(=O)OC(C)(C)C)C(=O)N[C@@H](CC(=O)O)C(=O)N[C@@H](Cc1ccccc1)C(N)=O [Pentagastrin]
[1]
  FUNDIC DNA: 0.44 ± 0.03 mg
  WEIGHT OF THE FUNDIC MUCOSA: 36.0 ± 4.2 mg
[2]
  pIC50: 9.39
[3]
  TUMOROUS DNA: 4.48 ± 0.29 mg
  WEIGHT OF THE COLIC TUMOUR: 779.7 ± 27 mg
[4]
  pIC50: 9.11
